Experimental findings from ChEMBL document CHEMBL1201862, “PubChem BioAssay data set” (2004) are described below.

Holding throughout (assay): NCI-60 cell line screen, 48 h
Test [1] has as its system M19-MEL.
The subject of test [2] is SNB-78.
In test [3] the test system is KM-20L2.
Test [4] concerns RXF 631.
In test [5] the test system is DMS-273.
The subject of test [6] is DLD-1.
In test [7] the test system is XF498.
Test [8] deals with DMS-114.
Test [9] relates to HOP-18.

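Each compound was tested at five concentrations against cells in 96-well plates for 48 hours. GI50: concentration for 50% inhibition of growth.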 The source made the active and inactive calls. Cut-off read from the data, not from the text of the source: active = GI50 up to about 1.1 µM and inactive = higher.

With `FC(F)(F)C1(Cl)C(c2ccccc2)=C1c1ccccc1`, the GI50 in test [1] was 14.6 µM (inactive); in test [2] it was 15.6 µM (inactive); in test [3], 16.2 µM (inactive); in test [4], 15.1 µM (inactive); in [5], 14.3 µM (inactive); in test [6] it was 14.8 µM (inactive). In addition, the GI50 in test [7] was 13.6 µM (inactive); in test [8], 12.9 µM (inactive); in [9], 20.7 µM (inactive).
`c1ccc2c(c1)cc(C1NCCc3nc[nH]c31)c1ccccc12` (configuration not stated): the GI50 in test [1] is 29.6 µM (inactive); in [2], > 86.5 µM (inactive); in [3], 56.5 µM (inactive); in test [4], 50.8 µM (inactive); in test [5] it was 29.7 µM (inactive); in test [6], 63.8 µM (inactive). The GI50 was 22.5 µM (inactive) in test [7], > 47.2 µM (inactive) in test [8] and > 62.1 µM (inactive) in test [9].
Consider `CC(C)(C)NNC(=O)CCn1[nH]c(=O)c(Cl)c(Cl)c1=O`, for which the GI50 in test [1], in test [3], in test [4], in test [5], in test [6] and in test [7] was > 100 µM (inactive) each time. Besides, the GI50 in test [8] and in [9] was > 100 µM (inactive) each time.
Take `Cc1ccc(S(=O)(=O)c2ccccn2)cc1`: the GI50 in [1], in test [2], in [3], in [4], in [5] and in test [6] was > 100 µM (inactive) each time. Besides, the GI50 in test [7], in test [8] and in [9] was > 100 µM (inactive) each time.
Consider `O=C1C=CC(=O)c2c1ccc1c3ccccc3n(-c3ccccc3)c21`, for which the GI50 in [1] was 16.5 µM (inactive); in test [2], 20.3 µM (inactive); in test [3], 17 µM (inactive); in [4], 25.4 µM (inactive); in test [5] it was 15.2 µM (inactive); in test [6] it was 2.26 µM (inactive). Besides, the GI50 in test [7] was 0.535 µM (active); in [8], 16.9 µM (inactive); in [9] it was 7.82 µM (inactive).
Turning to `CC(=O)O[C@H]1C(=O)[C@@]2(C)C(C(OC(=O)c3ccccc3)[C@]3(O)C[C@H](OC(=O)C(OC(=O)CCCC(=O)NCCCN(C)C)C(NC(=O)c4ccccc4)c4ccccc4)C(C)=C1C3(C)C)C1(OC(C)=O)COC1C[C@@H]2O` (some centres not stated), the GI50 in test [1] was < 0.01 µM (active); in test [2] it was 2.49 µM (inactive); in test [3] it was < 0.01 µM (active); in test [4] it was 0.0355 µM (active); in test [5] it was < 0.01 µM (active); in test [6], 0.0194 µM (active). Besides, the GI50 in [7] is < 0.01 µM (active); in test [8], < 0.01 µM (active); in test [9] it was 0.916 µM (active).
As for `COc1ccc(C(=O)c2cc(OC)c(OC)c(OC)c2)cc1`, the GI50 in [1] is 0.893 µM (active); in test [2], 0.194 µM (active); in test [3], 0.0715 µM (active); in test [4], 0.184 µM (active); in [5], 0.0863 µM (active); in test [6], 0.204 µM (active). Moreover, the GI50 is 0.432 µM (active) in test [7], 0.285 µM (active) in [8] and > 100 µM (inactive) in test [9].
